Laboratory results reported in patent publication US8735140B2, “Preservation and composition of bioprocess algae for production of lipids, seedstock, and feed” (Kuehnle AgroSystems, Inc., priority 2008, dated 2014).

What was measured:
Format in all cases: cell-based
Chlorella KAS503 = assay: Trehalose preservation, pretreatment with 0.5M sorbitol and embedding in alginate mat; conditions: for % viability after storage & rejuvenation / Cell recovery after storage, relative to control: 0M control = 100%; for Cell number after 21 weeks in storage & rejuvenation: 3 weeks rejuvenation; for Growth after storage & rejuvenation: 21 weeks + 3 weeks rejuvenation; for Cell recovery after storage, relative to control: 21 weeks
Experimental: (§1) Cells in 40 ml flask cultures are grown to mid-log phase with a density of between 3×10^6 and 3×10^7 cells/ml, and are centrifuged. Culture medium is removed after centrifugation, resulting in more concentrated algae cells. Cells are then re-suspended in ideal glass solution consisting of fresh culture medium and trehalose at a concentration of 0.1M, 0.3M, and 0.5M (dihydrate trehalose 100 from Hayashibara Co. Ltd, Okayama, Japan), respectively, and left overnight with mild agitation. Cells are centrifuged again to remove the ideal glass solution the next day, and are re-suspended in fresh or salt water without any nutrient. The cell density of the resulting suspension is determined prior to storage under the various treatments. (Some cells were also treated with a 0.5M sorbitol solution). In one specific embodiment, 2% (w/v) alginate solution (Sigma-Aldrich A-2033) and 3% CaCl2 solution (Sigma-Aldrich C1016) are prepared in salt water or fresh water medium as required by specific algae species, and autoclave sterilized. Then, 2.0 ml 2% alginate solution is pipetted into each well of a BD Falcon 12-well plate. 0.2 ml algae cell suspension is then pipetted into each well and the mixture is further stirred. The alginate-cell mixture is further sprayed with 3% CaCl2 solution in a sterile pump bottle, allowing the alginate to solidify. After solidification, plates are closed and placed under low light and at ambient temperature. After stored under the above preservation conditions for 5 months, algae cells can be rejuvenated by overlaying alginate/algae mixture with 3.0 ml sterile 5.0% NaPolyphosphate (Sigma Aldrich 305553) and allowing to the mixture sit overnight. The algae/alginate/NaPolyphosphate mixture is then removed from the 12-well plate, diluted with fresh medium (3 parts fresh medium to 1 part cell suspension) and placed under light. In one specific embodiment, cells are treated with trehalose solution at various concentrations and left overnight. Cells are centrifuged the next day to remove the trehalose solution, and then re-suspended in sterile 0.5M D-sorbitol (Fisher Scientific […]) dissolved in salt or fresh-water medium as required by specific algae species. Cells are left to stand for 2 hours with mild agitation. After 2 hours, cells are centrifuged again to remove the 0.5M sorbitol solution and re-suspended in fresh or salt-water medium. Cells are counted after the re-suspension. Cell viability is determined by comparing the cell growth in control set with the experimental set. Specifically, cell counts are performed on all samples. The averaged density value (in cells per ml) for all the cultures after treatment is defined as “rejuvenation cell count.” In some samples, the percent recovery of cells immediately after storage is also determined. The formulae are illustrated as follows: Growth=(rejuvenation cell count)/(initial cell count) Cell recovery after storage=(cell density after storage)/(initial cell density), with controls set at 100% cell recovery. Viability after storage and rejuvenation in nutrient medium=(Growth of treatment)/(Growth of control)×100%, with controls set at 100% viability

Chlorella KAS603 = assay: as above; conditions: for % viability after storage & rejuvenation / Cell recovery after storage, relative to control: 0M control = 100%; for Cell number after 21 weeks in storage & rejuvenation: 3 weeks rejuvenation; for Growth after storage & rejuvenation: 21 weeks + 3 weeks rejuvenation
Experimental: as §1

Synechocystis KAS635 = assay: as above; conditions: for % viability after storage & rejuvenation / Cell recovery after storage, relative to control: 0M control = 100%; for Cell number after 21 weeks in storage & rejuvenation: 3 weeks rejuvenation; for Cell recovery after storage / Cell recovery after storage, relative to control: 21 weeks; for Growth after storage & rejuvenation: 21 weeks + 3 weeks rejuvenation
Experimental: as §1

Tetraselmis KAS633 = assay: as above; conditions: for % viability after storage & rejuvenation / Cell recovery after storage, relative to control: 0M control = 100%; for Cell number after 21 weeks in storage & rejuvenation: 3 weeks rejuvenation; for Growth after storage & rejuvenation: 21 weeks + 3 weeks rejuvenation; for Cell recovery after storage, relative to control: 21 weeks
Experimental: as §1

algae cells = assay: Trehalose treatment, viability at room temperature under low light
Experimental: Cells in 40 ml flask cultures are grown to mid-log phase with a density of between 3×10^6 and 3×10^7 cells/ml, and are centrifuged. Culture medium is removed after centrifugation, resulting in more concentrated algae cells. Cells are then re-suspended in ideal glass solution consisting of fresh culture medium and trehalose at a concentration of 0.1M, 0.3M, and 0.5M (dihydrate trehalose 100 from Hayashibara Co. Ltd, Okayama, Japan), respectively, and left overnight with mild agitation. Cells are centrifuged again to remove the ideal glass solution the next day, and are re-suspended in fresh or salt water without any nutrient. The cell density of the resulting suspension is determined prior to storage under the various treatments. (Some cells were also treated with a 0.5M sorbitol solution). Cell viability is determined by comparing the cell growth in control set with the experimental set. Specifically, cell counts are performed on all samples. The averaged density value (in cells per ml) for all the cultures after treatment is defined as “rejuvenation cell count.” In some samples, the percent recovery of cells immediately after storage is also determined. The formulae are illustrated as follows: Growth=(rejuvenation cell count)/(initial cell count) Cell recovery after storage=(cell density after storage)/(initial cell density), with controls set at 100% cell recovery. […]

[1] = 0.1M trehalose in F/2, 0.5M sorbitol pretreatment
[2] = 0.3M trehalose in F/2, 0.5M sorbitol pretreatment
[3] = 0.5M trehalose in F/2, 0.5M sorbitol pretreatment
[4] = 0.1M trehalose in F/2, 0.5M sorbitol pretreatment, 21 weeks
[5] = 0.1M trehalose in BG11, 0.5M sorbitol pretreatment
[6] = 0.3M trehalose in BG11, 0.5M sorbitol pretreatment
[7] = 0.5M trehalose in BG11, 0.5M sorbitol pretreatment

Compound: OC[C@H]1O[C@H](O[C@H]2O[C@H](CO)[C@@H](O)[C@H](O)[C@H]2O)[C@H](O)[C@@H](O)[C@@H]1O [trehalose, α-D-glycosyl-α-D-glycosylpyranoside]
- Cell number after 21 weeks in storage (Chlorella KAS503; [1]): 1.163 × 10^7
- % viability after storage & rejuvenation (Chlorella KAS503; [1]): (51%)
- Cell number after 21 weeks in storage & rejuvenation (Chlorella KAS503; [1]): 1.03 × 10^7 cells/ml
- Growth after storage & rejuvenation (Chlorella KAS503; [1]): 0.89
- Cell recovery after storage, relative to control (Chlorella KAS503; [1]): (227%)
- Cell number after 21 weeks in storage (Chlorella KAS503; [2]): 8.097 × 10^6
- % viability after storage & rejuvenation (Chlorella KAS503; [2]): (148%)
- Cell number after 21 weeks in storage & rejuvenation (Chlorella KAS503; [2]): 2.080 × 10^7 cells/ml
- Growth after storage & rejuvenation (Chlorella KAS503; [2]): 2.57
- Cell recovery after storage, relative to control (Chlorella KAS503; [2]): (226%)
- Cell number after 21 weeks in storage (Chlorella KAS503; [3]): 8.589 × 10^6
- % viability after storage & rejuvenation (Chlorella KAS503; [3]): (132%)
- Cell number after 21 weeks in storage & rejuvenation (Chlorella KAS503; [3]): 1.959 × 10^7 cells/ml
- Growth after storage & rejuvenation (Chlorella KAS503; [3]): 2.28
- Cell recovery after storage, relative to control (Chlorella KAS503; [3]): (231%)
- Cell number after 21 weeks in storage (Chlorella KAS603; [1]): 1.920 × 10^7
- % viability after storage & rejuvenation (Chlorella KAS603; [1]): (105)%
- Cell number after 21 weeks in storage & rejuvenation (Chlorella KAS603; [1]): 3.102 × 10^7 cells/ml
- Cell recovery after storage (Chlorella KAS603; [4]): 1.76
- Growth after storage & rejuvenation (Chlorella KAS603; [1]): 1.62
- Cell recovery after storage, relative to control (Chlorella KAS603; [4]): (61%)
- Cell number after 21 weeks in storage (Chlorella KAS603; [2]): 2.378 × 10^7
- % viability after storage & rejuvenation (Chlorella KAS603; [2]): (139)%
- Cell number after 21 weeks in storage & rejuvenation (Chlorella KAS603; [2]): 5.099 × 10^7 cells/ml
- Growth after storage & rejuvenation (Chlorella KAS603; [2]): 2.14
- Cell recovery after storage, relative to control (Chlorella KAS603; 0.3M trehalose in F/2, 0.5M sorbitol pretreatment, 21 weeks): (123%)
- Cell number after 21 weeks in storage (Chlorella KAS603; [3]): 2.113 × 10^7
- % viability after storage & rejuvenation (Chlorella KAS603; [3]): (160%)
- Cell number after 21 weeks in storage & rejuvenation (Chlorella KAS603; [3]): 5.197 × 10^7 cells/ml
- Growth after storage & rejuvenation (Chlorella KAS603; [3]): 2.46
- Cell recovery after storage, relative to control (Chlorella KAS603; 0.5M trehalose in F/2, 0.5M sorbitol pretreatment, 21 weeks): (155%)
- Cell number after 21 weeks in storage (Synechocystis KAS635; [5]): 1.275 × 10^7
- % viability after storage & rejuvenation (Synechocystis KAS635; [5]): (87%)
- Cell number after 21 weeks in storage & rejuvenation (Synechocystis KAS635; [5]): 2.436 × 10^7 cells/ml
- Cell recovery after storage (Synechocystis KAS635; [5]): 0.39
- Growth after storage & rejuvenation (Synechocystis KAS635; [5]): 1.91
- Cell recovery after storage, relative to control (Synechocystis KAS635; [5]): (106%)
- Cell number after 21 weeks in storage (Synechocystis KAS635; [6]): 1.421 × 10^7
- % viability after storage & rejuvenation (Synechocystis KAS635; [6]): (144%)
- Cell number after 21 weeks in storage & rejuvenation (Synechocystis KAS635; [6]): 4.495 × 10^7 cells/ml
- Cell recovery after storage (Synechocystis KAS635; [6]): 0.42
- Growth after storage & rejuvenation (Synechocystis KAS635; [6]): 3.16
- Cell recovery after storage, relative to control (Synechocystis KAS635; [6]): (114%)
- Cell number after 21 weeks in storage (Synechocystis KAS635; [7]): 2.023 × 10^7
- % viability after storage & rejuvenation (Synechocystis KAS635; [7]): (80%)
- Cell number after 21 weeks in storage & rejuvenation (Synechocystis KAS635; [7]): 3.560 × 10^7 cells/ml
- Cell recovery after storage (Synechocystis KAS635; [7]): 0.72
- Growth after storage & rejuvenation (Synechocystis KAS635; [7]): 1.76
- Cell recovery after storage, relative to control (Synechocystis KAS635; [7]): (195%)
- Cell number after 21 weeks in storage (Tetraselmis KAS633; [1]): 2.831 × 10^6
- % viability after storage & rejuvenation (Tetraselmis KAS633; [1]): (104%)
- Cell number after 21 weeks in storage & rejuvenation (Tetraselmis KAS633; [1]): 1.163 × 10^7 cells/ml
- Growth after storage & rejuvenation (Tetraselmis KAS633; [1]): 4.1
- Cell recovery after storage, relative to control (Tetraselmis KAS633; [1]): (78%)
- Cell number after 21 weeks in storage (Tetraselmis KAS633; [2]): 2.276 × 10^6
- % viability after storage & rejuvenation (Tetraselmis KAS633; [2]): (158%)
- Cell number after 21 weeks in storage & rejuvenation (Tetraselmis KAS633; [2]): 1.420 × 10^7 cells/ml
- Growth after storage & rejuvenation (Tetraselmis KAS633; [2]): 6.23
- Cell recovery after storage, relative to control (Tetraselmis KAS633; [2]): (80%)
- Cell number after 21 weeks in storage (Tetraselmis KAS633; [3]): 1.899 × 10^6
- % viability after storage & rejuvenation (Tetraselmis KAS633; [3]): 186%
- Cell number after 21 weeks in storage & rejuvenation (Tetraselmis KAS633; [3]): 1.399 × 10^7 cells/ml
- Growth after storage & rejuvenation (Tetraselmis KAS633; [3]): 7.34
- Cell recovery after storage, relative to control (Tetraselmis KAS633; [3]): (58%)
- Period for which cells remain viable (algae cells): at least 5 months
